The values below come from US11730712B2, “Functionalized long-chain hydrocarbon mono- and di-carboxylic acids and derivatives thereof, and their use for the prevention or treatment of disease” (ESPERVITA THERAPEUTICS, INC., priority 2021, dated 2023).

“And” between values parts separate entries of the source, which are not always exact repeats. Equal entries are not always repeated.

Experiment in all cases: Kinase assay, wild type kinases
What all share (type): biochemical

The target in one experiment is T1, DDR2 (Homo sapiens, UniProt Q16832).
T1 sequence (Q16832 22-855): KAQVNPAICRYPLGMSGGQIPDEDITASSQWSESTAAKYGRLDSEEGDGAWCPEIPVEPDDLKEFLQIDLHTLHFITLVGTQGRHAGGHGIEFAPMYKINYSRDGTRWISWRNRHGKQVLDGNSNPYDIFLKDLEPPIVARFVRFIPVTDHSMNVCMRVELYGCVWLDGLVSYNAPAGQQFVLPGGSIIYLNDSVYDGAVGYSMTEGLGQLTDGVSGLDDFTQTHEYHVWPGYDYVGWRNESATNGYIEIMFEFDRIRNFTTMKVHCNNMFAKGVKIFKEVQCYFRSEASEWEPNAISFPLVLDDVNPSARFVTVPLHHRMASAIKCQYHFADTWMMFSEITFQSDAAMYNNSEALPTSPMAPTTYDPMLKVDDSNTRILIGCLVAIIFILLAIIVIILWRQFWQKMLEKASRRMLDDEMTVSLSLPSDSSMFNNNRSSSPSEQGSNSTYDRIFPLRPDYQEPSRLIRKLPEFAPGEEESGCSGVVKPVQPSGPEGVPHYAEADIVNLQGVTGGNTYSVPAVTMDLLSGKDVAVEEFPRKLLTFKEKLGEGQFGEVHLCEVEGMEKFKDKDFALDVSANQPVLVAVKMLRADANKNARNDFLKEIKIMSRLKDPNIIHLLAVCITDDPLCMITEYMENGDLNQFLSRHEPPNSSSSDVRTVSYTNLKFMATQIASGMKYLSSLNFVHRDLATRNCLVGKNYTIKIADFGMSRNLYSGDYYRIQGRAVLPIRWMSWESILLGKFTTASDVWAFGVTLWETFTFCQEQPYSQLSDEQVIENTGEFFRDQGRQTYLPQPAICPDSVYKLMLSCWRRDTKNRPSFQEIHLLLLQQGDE
Conditions: compound 10 μM, 10 μM ATP, duplicate (Data 1, Data 2), >100 activation, <100 inhibition; for remaining activity at 10 µM: read-out: % Enzyme Activity (relative to DMSO controls), DDR2.

A further experiment has as its target T2, NEK2 (Homo sapiens, UniProt P51955).
T2 sequence (P51955 1-445): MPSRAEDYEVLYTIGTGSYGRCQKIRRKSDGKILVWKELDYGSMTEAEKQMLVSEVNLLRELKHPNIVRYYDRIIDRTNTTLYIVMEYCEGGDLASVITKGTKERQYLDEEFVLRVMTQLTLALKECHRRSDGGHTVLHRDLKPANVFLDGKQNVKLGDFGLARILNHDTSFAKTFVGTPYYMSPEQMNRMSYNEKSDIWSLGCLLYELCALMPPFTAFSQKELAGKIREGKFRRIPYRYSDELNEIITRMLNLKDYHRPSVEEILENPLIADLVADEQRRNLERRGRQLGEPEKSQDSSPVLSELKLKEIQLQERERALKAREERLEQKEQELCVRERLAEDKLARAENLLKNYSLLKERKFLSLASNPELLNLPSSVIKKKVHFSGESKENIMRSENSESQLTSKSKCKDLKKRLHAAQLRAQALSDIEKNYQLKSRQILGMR
The settings on record: compound 10 μM, 10 μM ATP, duplicate (Data 1, Data 2), >100 activation, <100 inhibition; for remaining activity at 10 µM: read-out: % Enzyme Activity (relative to DMSO controls), NEK2.

The next experiment deals with FLT1/VEGFR1 (Homo sapiens, UniProt P17948). The settings on record: compound 10 μM, 10 μM ATP, duplicate (Data 1, Data 2), >100 activation, <100 inhibition; for remaining activity at 10 µM: read-out: % Enzyme Activity (relative to DMSO controls), FLT1/VEGFR1.
Sequence of FLT1/VEGFR1 (P17948 27-1338): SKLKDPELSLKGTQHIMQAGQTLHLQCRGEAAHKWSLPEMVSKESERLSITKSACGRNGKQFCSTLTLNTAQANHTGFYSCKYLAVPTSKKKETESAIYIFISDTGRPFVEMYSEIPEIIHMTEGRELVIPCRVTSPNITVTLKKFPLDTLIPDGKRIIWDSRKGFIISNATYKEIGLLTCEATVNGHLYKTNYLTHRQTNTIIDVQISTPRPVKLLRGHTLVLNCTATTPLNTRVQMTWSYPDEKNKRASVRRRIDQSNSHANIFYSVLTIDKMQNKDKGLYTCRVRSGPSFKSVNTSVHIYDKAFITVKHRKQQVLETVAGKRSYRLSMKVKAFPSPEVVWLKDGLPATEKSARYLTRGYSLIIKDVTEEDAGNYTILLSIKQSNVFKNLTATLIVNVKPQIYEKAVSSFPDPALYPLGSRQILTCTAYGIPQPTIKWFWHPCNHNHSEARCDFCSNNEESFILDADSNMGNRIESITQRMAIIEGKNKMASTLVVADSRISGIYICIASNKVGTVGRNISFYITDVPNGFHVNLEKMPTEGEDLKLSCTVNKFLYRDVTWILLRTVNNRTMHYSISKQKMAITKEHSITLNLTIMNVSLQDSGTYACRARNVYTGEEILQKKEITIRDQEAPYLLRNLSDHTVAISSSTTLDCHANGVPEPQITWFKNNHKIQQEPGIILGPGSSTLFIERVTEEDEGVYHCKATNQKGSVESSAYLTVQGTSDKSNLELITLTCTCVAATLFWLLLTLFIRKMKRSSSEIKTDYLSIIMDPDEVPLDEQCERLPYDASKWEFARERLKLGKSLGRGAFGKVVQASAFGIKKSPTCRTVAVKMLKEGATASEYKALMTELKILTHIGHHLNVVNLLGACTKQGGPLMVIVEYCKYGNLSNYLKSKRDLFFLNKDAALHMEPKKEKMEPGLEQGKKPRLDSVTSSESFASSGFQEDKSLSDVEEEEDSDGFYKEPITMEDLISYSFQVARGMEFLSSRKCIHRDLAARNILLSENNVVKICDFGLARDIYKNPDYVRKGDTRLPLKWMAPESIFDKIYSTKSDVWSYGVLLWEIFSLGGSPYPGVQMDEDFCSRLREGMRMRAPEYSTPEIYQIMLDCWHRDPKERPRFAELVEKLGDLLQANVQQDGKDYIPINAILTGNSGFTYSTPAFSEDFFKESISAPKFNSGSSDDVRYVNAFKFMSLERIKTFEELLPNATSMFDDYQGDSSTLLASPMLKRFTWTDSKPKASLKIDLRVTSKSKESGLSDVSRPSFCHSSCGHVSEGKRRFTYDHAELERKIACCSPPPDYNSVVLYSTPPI
For a further experiment, the target named is MELK (Homo sapiens, UniProt Q14680). The settings on record: compound 10 μM, 10 μM ATP, duplicate (Data 1, Data 2), >100 activation, <100 inhibition; for remaining activity at 10 µM: read-out: % Enzyme Activity (relative to DMSO controls), MELK.
Sequence of MELK (Q14680 whole entry, species assumed): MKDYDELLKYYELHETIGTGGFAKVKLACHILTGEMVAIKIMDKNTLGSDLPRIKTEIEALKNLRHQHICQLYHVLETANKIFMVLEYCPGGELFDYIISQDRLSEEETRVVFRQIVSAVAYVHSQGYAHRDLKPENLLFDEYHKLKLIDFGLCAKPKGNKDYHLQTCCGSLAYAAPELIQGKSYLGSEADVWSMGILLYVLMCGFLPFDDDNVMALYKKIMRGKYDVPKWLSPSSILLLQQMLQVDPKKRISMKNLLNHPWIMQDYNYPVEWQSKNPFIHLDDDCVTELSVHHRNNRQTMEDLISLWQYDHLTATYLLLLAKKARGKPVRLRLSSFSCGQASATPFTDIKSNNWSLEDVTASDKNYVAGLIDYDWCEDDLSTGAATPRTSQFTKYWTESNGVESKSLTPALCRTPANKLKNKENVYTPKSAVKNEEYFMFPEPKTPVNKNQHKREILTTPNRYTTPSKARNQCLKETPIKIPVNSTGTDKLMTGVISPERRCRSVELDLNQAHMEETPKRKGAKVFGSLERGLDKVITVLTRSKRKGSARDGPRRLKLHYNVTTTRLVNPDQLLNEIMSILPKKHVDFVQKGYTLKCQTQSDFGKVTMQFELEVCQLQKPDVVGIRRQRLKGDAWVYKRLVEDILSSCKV
The target in a further experiment is LIMK1 (Homo sapiens, UniProt P53667). The settings on record: compound 10 μM, 10 μM ATP, duplicate (Data 1, Data 2), >100 activation, <100 inhibition; for remaining activity at 10 µM: read-out: % Enzyme Activity (relative to DMSO controls), LIMK1.
Sequence of LIMK1 (P53667 whole entry, species assumed): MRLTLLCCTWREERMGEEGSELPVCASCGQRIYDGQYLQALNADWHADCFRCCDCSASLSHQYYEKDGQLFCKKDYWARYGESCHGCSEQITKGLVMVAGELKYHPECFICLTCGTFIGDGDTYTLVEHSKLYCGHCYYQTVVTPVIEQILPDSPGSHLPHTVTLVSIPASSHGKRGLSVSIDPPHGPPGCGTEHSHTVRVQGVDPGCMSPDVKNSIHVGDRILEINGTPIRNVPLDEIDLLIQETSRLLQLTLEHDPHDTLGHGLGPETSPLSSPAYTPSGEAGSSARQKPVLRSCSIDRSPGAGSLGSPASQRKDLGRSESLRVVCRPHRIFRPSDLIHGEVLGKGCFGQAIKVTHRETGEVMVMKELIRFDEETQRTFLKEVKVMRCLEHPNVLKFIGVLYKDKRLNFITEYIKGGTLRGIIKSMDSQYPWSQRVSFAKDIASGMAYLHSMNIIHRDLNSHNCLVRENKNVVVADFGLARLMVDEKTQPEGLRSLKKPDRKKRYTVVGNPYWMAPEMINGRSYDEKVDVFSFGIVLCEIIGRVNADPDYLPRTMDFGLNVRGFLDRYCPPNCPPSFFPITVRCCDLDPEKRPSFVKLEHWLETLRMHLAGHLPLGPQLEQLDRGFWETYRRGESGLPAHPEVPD
The target of another experiment is PIM3 (Homo sapiens, UniProt Q86V86). The settings on record: compound 10 μM, 10 μM ATP, duplicate (Data 1, Data 2), >100 activation, <100 inhibition; for remaining activity at 10 µM: read-out: % Enzyme Activity (relative to DMSO controls), PIM3.
In the next experiment the target is T3, ERK7/MAPK15 (Homo sapiens, UniProt Q8TD08).
T3 sequence (Q8TD08 1-544): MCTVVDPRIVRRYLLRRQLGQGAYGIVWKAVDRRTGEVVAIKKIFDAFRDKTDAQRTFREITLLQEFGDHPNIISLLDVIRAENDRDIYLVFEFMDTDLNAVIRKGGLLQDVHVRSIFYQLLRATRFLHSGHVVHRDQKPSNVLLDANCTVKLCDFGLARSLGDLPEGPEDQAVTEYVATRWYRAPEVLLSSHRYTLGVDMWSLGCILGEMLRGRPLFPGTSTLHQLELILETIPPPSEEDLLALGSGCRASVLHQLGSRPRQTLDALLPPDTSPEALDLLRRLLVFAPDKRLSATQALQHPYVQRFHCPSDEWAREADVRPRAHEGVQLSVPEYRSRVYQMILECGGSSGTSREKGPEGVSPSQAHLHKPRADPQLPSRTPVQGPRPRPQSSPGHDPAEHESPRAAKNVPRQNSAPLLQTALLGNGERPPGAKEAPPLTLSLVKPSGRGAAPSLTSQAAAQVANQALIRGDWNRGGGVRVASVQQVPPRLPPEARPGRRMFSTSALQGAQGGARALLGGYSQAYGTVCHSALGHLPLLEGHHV
The settings on record: compound 10 μM, 10 μM ATP, duplicate (Data 1, Data 2), >100 activation, <100 inhibition; for remaining activity at 10 µM: read-out: % Enzyme Activity (relative to DMSO controls), ERK7/MAPK15.

Consider `CC(C)(CCCCc1ccc(CCCCC(C)(C)C(=O)O)cc1)C(=O)O` [Compound I-1, 6-[4-(5-carboxy-5-methylhexyl)-phenyl]-2,2-dimethylhexanoic acid], for which the remaining activity at 10 µM on DDR2 turned out to be 79.8%; at NEK2, 90.3%; on FLT1/VEGFR1, 90.3%; on MELK, 110%; at LIMK1 it was 81%; on PIM3, 87.9%. In addition, on ERK7/MAPK15, the remaining activity at 10 µM is 100%.
Turning to `CC(C)(CCCCc1cccc(CCCCC(C)(C)C(=O)SCCNC(=O)CCNC(=O)[C@H](O)C(C)(C)COP(=O)(O)OP(=O)(O)OC[C@H]2O[C@@H](n3cnc4c(N)ncnc43)[C@H](O)[C@@H]2OP(=O)(O)O)c1)C(=O)O` [Compound I-32-CoA, 6-[3-(5-Carboxy-5-methylhexyl)-phenyl]-2,2-dimethylhexanoic acid Coenzyme A Ester], the “% Enzyme Activity (relative to DMSO controls), DDR2” value on DDR2 was 29.98% and 25.40%. Besides, the “% Enzyme Activity (relative to DMSO controls), NEK2” value at NEK2 was 35.98% and 34.99%. Besides, the “% Enzyme Activity (relative to DMSO controls), FLT1/VEGFR1” value on FLT1/VEGFR1 is 52.06% and 51.61%. The “% Enzyme Activity (relative to DMSO controls), MELK” value on MELK is 28.56% and 27.35%. For the same molecule, at LIMK1, the “% Enzyme Activity (relative to DMSO controls), LIMK1” value is 47.31% and 45.01%. In addition, on PIM3, the “% Enzyme Activity (relative to DMSO controls), PIM3” value was 51.10% and 43.67%. The “% Enzyme Activity (relative to DMSO controls), ERK7/MAPK15” value at ERK7/MAPK15 was 88.39% and 80.61%.
As for `CC(C)(CCCCc1ccc(CCCCC(C)(C)C(=O)SCCNC(=O)CCNC(=O)[C@H](O)C(C)(C)COP(=O)(O)OP(=O)(O)OC[C@H]2O[C@@H](n3cnc4c(N)ncnc43)[C@H](O)[C@@H]2OP(=O)(O)O)cc1)C(=O)O` [Compound I-1-CoA, 6-[4-(5-carboxy-5-methylhexyl)-phenyl]-2,2-dimethylhexanoic acid Coenzyme A ester], the “% Enzyme Activity (relative to DMSO controls), DDR2” value on DDR2 is 88.28% and 79.94%. For the same molecule, on NEK2, the “% Enzyme Activity (relative to DMSO controls), NEK2” value was 0.89% and 0.63%. Besides, the “% Enzyme Activity (relative to DMSO controls), FLT1/VEGFR1” value on FLT1/VEGFR1 is 84.17% and 82.94%. On MELK, the “% Enzyme Activity (relative to DMSO controls), MELK” value was 23.02% and 21.99%. Also, the “% Enzyme Activity (relative to DMSO controls), LIMK1” value on LIMK1 is 77.88% and 76.61%. Also, the “% Enzyme Activity (relative to DMSO controls), PIM3” value at PIM3 was 73.92% and 70.32%. Further, the “% Enzyme Activity (relative to DMSO controls), ERK7/MAPK15” value at ERK7/MAPK15 was 51.57% and 45.02%.
As to `CC(C)(CCCCc1cccc(CCCCC(C)(C)C(=O)O)c1)C(=O)O` [Compound I-32, 6-[3-(5-carboxy-5-methylhexyl)-phenyl]-2,2-dimethylhexanoic acid], the remaining activity at 10 µM on DDR2 amounted to 91.4%; at NEK2, 87.8%; at FLT1/VEGFR1 it was 92.3%; at MELK it was 114%; at LIMK1, 83.8%; at PIM3 it was 90%. At ERK7/MAPK15, the remaining activity at 10 µM turned out to be 104%.
